PubChem BioAssay (NCI)
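Assay format: 96-well plates, 48-hour exposure. TGI is the concentration that stops growth completely.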

What was measured:
Test in all cases: DTP human tumour cell line panel, 48 h
[1] = system: ACHN renal
[2] = system: SF-295 CNS
[3] = system: OVCAR-8 ovarian
[4] = system: NCI/ADR-RES ovarian
[5] = system: PC-3 prostate
[6] = system: K-562 leukemia
[7] = system: MDA-N
[8] = system: RPMI-8226 leukemia
[9] = system: A549 NSCLC
[10] = system: HL-60(TB) leukemia
[11] = system: A498 renal
[12] = system: TK-10 renal
[13] = system: HT29 colon
[14] = system: SK-MEL-2 melanoma
[15] = system: DU-145 prostate
[16] = system: KM12 colon
[17] = system: OVCAR-5 ovarian
[18] = system: MALME-3M melanoma
[19] = system: MDA-MB-435
[20] = system: SK-OV-3 ovarian
[21] = system: HOP-92 NSCLC
[22] = system: HCC-2998 colon
[23] = system: M14 melanoma
[24] = system: EKVX NSCLC
[25] = system: NCI-H522 lung
[26] = system: SK-MEL-28 melanoma
[27] = system: HS 578T breast
[28] = system: COLO 205 colon
[29] = system: NCI-H460 lung
[30] = system: BT-549 breast
[31] = system: HOP-62 NSCLC
[32] = system: IGROV1 ovarian
[33] = system: MDA-MB-231 breast
[34] = system: HCT-116 colon
[35] = system: CAKI-1 renal
[36] = system: SR leukemia
[37] = system: CCRF-CEM leukemia
[38] = system: SF-539 CNS
[39] = system: NCI-H23 lung
[40] = system: SW-620 colon
[41] = system: UACC-257 melanoma
[42] = system: LOX IMVI melanoma
[43] = system: SNB-19 CNS
[44] = system: MCF7 breast
[45] = system: OVCAR-3 ovarian
[46] = system: SK-MEL-5 melanoma
[47] = system: MOLT-4 leukemia
[48] = system: UACC-62 melanoma
[49] = system: HCT-15 colon
[50] = system: UO-31 renal
[51] = system: 786-0 renal
[52] = system: SF-268 CNS
[53] = system: U251 CNS
[54] = system: SN12C renal
[55] = system: SNB-75 CNS
[56] = system: OVCAR-4 ovarian
[57] = system: T-47D breast
[58] = system: RXF 393 renal

With `Cc1c(-c2ccccc2)n(C)c2cn[nH]c(=O)c12` the TGI [1] was greater than 100 µM, the TGI [2] was 65.1 µM and the TGI [3] was greater than 100 µM. The TGI [4] was 69.4 µM, the TGI [5] was 51.3 µM and the TGI [6] was greater than 100 µM. For the same molecule, the TGI [7] was greater than 100 µM, the TGI [8] was greater than 100 µM and the TGI [9] was greater than 100 µM. It also gave a TGI [10] greater than 100 µM, a TGI [11] greater than 100 µM and a TGI [12] greater than 100 µM. For the same molecule, the TGI [13] was 81.3 µM, the TGI [14] was 48 µM and the TGI [15] was greater than 100 µM. For the same molecule, the TGI [16] was greater than 100 µM, the TGI [17] was greater than 100 µM and the TGI [18] was greater than 100 µM. It also gave a TGI [19] greater than 100 µM, a TGI [20] of 61.2 µM and a TGI [21] greater than 100 µM. It also gave a TGI [22] of 85.8 µM, a TGI [23] greater than 100 µM and a TGI [24] greater than 100 µM. The TGI [25] was greater than 100 µM, the TGI [26] was greater than 100 µM and the TGI [27] was greater than 100 µM. It also gave a TGI [28] of 32 µM, a TGI [29] greater than 100 µM and a TGI [30] greater than 100 µM. For the same molecule, the TGI [31] was 80.3 µM, the TGI [32] was greater than 100 µM and the TGI [33] was 36.9 µM. For the same molecule, the TGI [34] was greater than 100 µM, the TGI [35] was greater than 100 µM and the TGI [36] was 70.9 µM. It also gave a TGI [37] greater than 100 µM, a TGI [38] greater than 100 µM and a TGI [39] greater than 100 µM. For the same molecule, the TGI [40] was greater than 100 µM, the TGI [41] was greater than 100 µM and the TGI [42] was 38.3 µM. The TGI [43] was greater than 100 µM, the TGI [44] was greater than 100 µM and the TGI [45] was 47.7 µM. It also gave a TGI [46] of 31.8 µM, a TGI [47] greater than 100 µM and a TGI [48] greater than 100 µM. The TGI [49] was greater than 100 µM, the TGI [50] was greater than 100 µM and the TGI [51] was 62.5 µM. For the same molecule, the TGI [52] was greater than 100 µM and the TGI [53] was greater than 100 µM.
Work on `COc1ccc(/C=N/NC(=O)O)cc1` yielded a TGI [1] greater than 100 µM, a TGI [2] greater than 100 µM and a TGI [4] greater than 100 µM. For the same molecule, the TGI [5] was greater than 100 µM, the TGI [6] was greater than 100 µM and the TGI [7] was greater than 100 µM. The TGI [8] was greater than 100 µM, the TGI [9] was greater than 100 µM and the TGI [11] was greater than 100 µM. The TGI [12] was greater than 100 µM, the TGI [13] was greater than 100 µM and the TGI [14] was greater than 100 µM. It also gave a TGI [15] greater than 100 µM, a TGI [54] greater than 100 µM and a TGI [16] greater than 100 µM. The TGI [17] was greater than 100 µM, the TGI [18] was greater than 100 µM and the TGI [19] was greater than 100 µM. The TGI [20] was greater than 100 µM, the TGI [22] was greater than 100 µM and the TGI [55] was greater than 100 µM. It also gave a TGI [23] greater than 100 µM, a TGI [24] greater than 100 µM and a TGI [25] greater than 100 µM. The TGI [26] was greater than 100 µM, the TGI [27] was greater than 100 µM and the TGI [28] was greater than 100 µM. It also gave a TGI [29] greater than 100 µM, a TGI [30] greater than 100 µM and a TGI [31] greater than 100 µM. It also gave a TGI [32] greater than 100 µM, a TGI [33] greater than 100 µM and a TGI [56] greater than 100 µM. For the same molecule, the TGI [34] was greater than 100 µM, the TGI [35] was greater than 100 µM and the TGI [36] was greater than 100 µM. The TGI [38] was greater than 100 µM, the TGI [57] was greater than 100 µM and the TGI [58] was greater than 100 µM. It also gave a TGI [39] greater than 100 µM, a TGI [40] greater than 100 µM and a TGI [41] greater than 100 µM. For the same molecule, the TGI [42] was greater than 100 µM, the TGI [43] was greater than 100 µM and the TGI [44] was greater than 100 µM. The TGI [45] was greater than 100 µM, the TGI [46] was greater than 100 µM and the TGI [47] was greater than 100 µM. For the same molecule, the TGI [48] was greater than 100 µM, the TGI [49] was greater than 100 µM and the TGI [50] was greater than 100 µM. It also gave a TGI [51] greater than 100 µM and a TGI [53] greater than 100 µM.
